According to PMC6254154 (Molecules, 2009):

Tests used:
[1] = tested on: hyaluronidase of NK venom; experiment: Inhibition of hyaluronidase activity of NK venom (turbidimetric); assay type: biochemical, Naja naja kaouthia; details: NK venom 250 µg; pre-incubated 30 min at 37 °C; mean ± S.E.M. (n = 2)
Procedure: (§1) Hyaluronidase activity was determined according to the methods of Ferrante and Yingprasertchai et al. with slight modification. CR or NK venom (25-1,000 µg) in PBS (pH 7.4) was incubated with hyaluronic acid (50 μg) in 0.2 M sodium acetate buffer (1 mL, pH 5) that contained 0.15 M NaCl for 25 min at 37 °C. The reaction was stopped by adding 2.5% cetyltrimethylammonium bromide in 2% NaOH (2 mL). The optical density at 400 nm of each sample was read after 30 min with a Shimadzu UV-VIS spectrophotometer UV-160A against blank. Turbidity-reducing activity was expressed as the percentage of the remaining hyaluronic acid, taking the absorbance of a tube to which no enzyme was added as 100%. The venom concentration that produced a reduction in turbidity of ~50% was used in inhibition experiments. […] Blanks containing only the buffer and test sample were run in parallel. The anti-hyaluronidase potential of the extract and its phenolic principles was presented as percent inhibition of the enzymatic activity versus dose. ED50, the effective dose that hyaluronidase activity of the venoms was reduced by 50%, was calculated.

[2] = tested on: hyaluronidase of CR venom; experiment: Inhibition of hyaluronidase activity of CR venom (turbidimetric); assay type: biochemical, Calloselasma rhodostoma; details: CR venom 250 µg; pre-incubated 30 min at 37 °C; mean ± S.E.M. (n = 2)
Procedure: as §1

LAAO of NK venom = experiment: Inhibition of LAAO activity of NK venom (enzyme-coupled assay); assay type: biochemical, Naja naja kaouthia; details: NK venom 50 µg; pre-incubated 1 h at 37 °C; mean ± S.E.M. (n = 2)
Procedure: (§2) LAAO activity of CR and NK venoms was determined by using an enzyme-coupled assay. The assay mixture contained 0.025 mL 0.014% peroxidase and 0.2 M triethanolamine buffer (1 mL, pH 7.6) that contained 0.1% L-leucine and 0.0065% o-dianisidine. After incubation at 25 °C for 3 min, 0.1 mL CR or NK venom in PBS (1 mg/mL) was added, and an increase in absorbance at 436 nm (Shimadzu UV-VIS spectrophotometer UV-160A) was measured against blank. Enzymatic activity was calculated from the linear portion of the time–absorbance plot, where one unit of enzymatic activity was defined as the amount of enzyme that caused an increase of 0.001 absorbance units per minute. The percent inhibition of LAAO activity by MSKE and its isolated phenolic principles was evaluated by pre-incubating CR or NK venom (0.1 mL, 1 mg/mL) with test sample in sterile water for injection (SWI) (0.1 mL) for 1 h at 37 °C. After pre-incubation, the mixture was centrifuged at 10,000 rpm for 5 min, and supernatant (0.1 mL) was evaluated for LAAO activity. Venoms, test sample, and solvents alone were used as controls. The anti-LAAO potential of the extract and its phenolic principles was presented as percent inhibition of the enzymatic activity versus dose. ED50, the effective dose that LAAO activity of the venoms was reduced by 50%, was calculated.

LAAO of CR venom = target: T1, LAAO of CR venom (Calloselasma rhodostoma, UniProt P81382); experiment: Inhibition of LAAO activity of CR venom (enzyme-coupled assay); assay type: biochemical; details: CR venom 50 µg; pre-incubated 1 h at 37 °C; mean ± S.E.M. (n = 2)
T1 construct: from tissue; host or cells: crude snake venom (CR)
T1 sequence (P81382 19-516): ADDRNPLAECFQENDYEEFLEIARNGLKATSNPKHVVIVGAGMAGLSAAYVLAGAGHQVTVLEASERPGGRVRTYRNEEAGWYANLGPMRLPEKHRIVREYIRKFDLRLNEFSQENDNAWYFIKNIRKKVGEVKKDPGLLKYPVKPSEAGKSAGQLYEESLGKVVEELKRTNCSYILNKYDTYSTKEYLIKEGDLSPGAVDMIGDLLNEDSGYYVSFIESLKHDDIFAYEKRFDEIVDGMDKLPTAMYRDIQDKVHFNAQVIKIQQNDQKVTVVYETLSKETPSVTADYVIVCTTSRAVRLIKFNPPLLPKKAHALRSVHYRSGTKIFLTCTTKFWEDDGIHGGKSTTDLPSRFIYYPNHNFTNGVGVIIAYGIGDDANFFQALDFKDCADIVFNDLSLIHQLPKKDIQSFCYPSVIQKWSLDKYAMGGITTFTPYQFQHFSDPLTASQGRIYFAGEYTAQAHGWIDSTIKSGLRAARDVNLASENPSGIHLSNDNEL
Procedure: as §2

PLA2 of CR venom = experiment: Inhibition of PLA2 activity of CR venom (indirect hemolytic assay on agarose-erythrocyte-egg yolk gel plates); assay type: biochemical, Calloselasma rhodostoma; details: CR venom 17.1 µg (one MIHD); pre-incubated 1 h at 37 °C; mean ± S.E.M. (n = 2)
Procedure: (§3) PLA2 activity in CR and NK venoms was measured using an indirect hemolytic assay on agarose-erythrocyte-egg yolk gel plates to define the minimum indirect hemolytic dose (MIHD), the dose of venom that induced a hemolysis halo of 20 mm diameter after incubation for 20 h at 37 °C. The inhibition of PLA2 activity by MSKE and its isolated phenolic principles was determined against one MIHD of CR and NK venoms. Test solutions and the venoms (0.05 mL each) were pre-incubated for 1 h at 37 °C. After centrifugation at 10,000 rpm for 10 min, the supernatant (20 µL) was tested for PLA2 activity. The anti-PLA2 potential of the extract and its phenolic principles was presented as percent inhibition of the enzymatic activity versus dose, in which 100% inhibition should produce no clear zone. ED50, the effective dose that PLA2 activity of the venoms was reduced by 50%, was calculated.

PLA2 of NK venom = experiment: Inhibition of PLA2 activity of NK venom (indirect hemolytic assay on agarose-erythrocyte-egg yolk gel plates); assay type: biochemical, Naja naja kaouthia; details: NK venom 3.4 µg (one MIHD); pre-incubated 1 h at 37 °C; mean ± S.E.M. (n = 2)
Procedure: as §3

| Compound | Hyaluronidase (ED50, µg) NK venom [1] | Hyaluronidase (ED50, µg) CR venom [2] | LAAO (ED50, µg) NK venom (LAAO of NK venom) | LAAO (ED50, µg) CR venom (LAAO of CR venom) | PLA2 (ED50, µg) CR venom (PLA2 of CR venom) | PLA2 (ED50, µg) NK venom (PLA2 of NK venom) |
| --- | --- | --- | --- | --- | --- | --- |
| COC(=O)c1cc(O)c(O)c(O)c1 [MG, methyl gallate] | 8.6 ± 2.1 µg | 5.9 ± 2.4 µg | 4.4 ± 2.0 µg | 2.3 ± 2.4 µg | 42.9 ± 2.3 µg | 108.7 ± 2.0 µg |
| O=C(OC[C@H]1O[C@@H](OC(=O)c2cc(O)c(O)c(O)c2)[C@H](OC(=O)c2cc(O)c(O)c(O)c2)[C@@H](OC(=O)c2cc(O)c(O)c(O)c2)[C@@H]1OC(=O)c1cc(O)c(O)c(O)c1)c1cc(O)c(O)c(O)c1 [PGG, 1,2,3,4,6-penta-O-galloyl-β-D-glucopyranose] | 2.6 ± 1.7 µg | 3.4 ± 2.4 µg | 2.2 ± 2.0 µg | 0.9 ± 2.4 µg | 25.6 ± 1.3 µg | 30.2 ± 2.4 µg |
| O=C(O)c1cc(O)c(O)c(O)c1 [GA, gallic acid] | 14.8 ± 1.4 µg | 16.0 ± 2.5 µg | 4.5 ± 2.8 µg | 1.7 ± 3.4 µg | 66.0 ± 2.5 µg | 123.5 ± 2.5 µg |
